Measured values published in article PMC11855827, “High-Throughput Screening of Five Compound Libraries for Anthelmintic Activity and Toxicity Leads to the Discovery of Two Flavonoid Compounds” (International Journal of Molecular Sciences, 2025).
Several values for one entry are separate records, joined by “and”; a condition that tells them apart may be missing. Identical values can stand only once.

Tested on: C. elegans
Conditions: Table S2, C. elegans SS assay, 110 μM, averages of 4 data points

Molecule	Percentage of motility inhibition 0 h [%]	Percentage of motility inhibition 24 h
C[C@@H](CO[C@@H]1O[C@H](CO)[C@@H](O)[C@H](O)[C@H]1O)[C@@H]1CC[C@@]2(CC[C@]3(C)[C@H](CC[C@@H]4[C@@]5(C)CC[C@H](O[C@@H]6O[C@H](CO)[C@@H](O)[C@H](O)[C@H]6O[C@@H]6OC[C@@H](O)[C@H](O)[C@H]6O)[C@@](C)(CO[C@@H]6O[C@H](CO)[C@@H](O)[C@H](O)[C@H]6O)[C@@H]5CC[C@]43C)[C@H]2O)CO1 [Hosenkoside M]	5	0%
CC(C)C1=CC(=O)[C@@](C)([C@H]2[C@H](O)C[C@@]3(C)[C@@H]4CC=C5[C@@H](CC[C@@H](O[C@@H]6OC[C@@H](O)[C@H](O)[C@H]6O[C@@H]6O[C@@H](C)[C@H](O)[C@@H](O)[C@H]6O)C5(C)C)[C@]4(C)C(=O)C[C@]23C)O1 [Picfeltarraenin IA]	5	2%
O[C@H]1CCN2Cc3ccccc3N=C12 (racemic) [(±)‐Vasicine]	3	31%
NC1CCN(c2nc3c(cc2F)c(=O)c(C(=O)O)cn3-c2ccc(F)cc2F)C1 (stereo not drawn) [Tosufloxacin (tosylate hydrate)]	44	36%
CC(=O)OC[C@@]12CC[C@@H](C)[C@](C)(CCC3=CC(=O)OC3)[C@H]1C[C@H](O)C=C2CO [Blinin]	0	7%
C/C1=C\C(=O)c2c(C)coc2C/C(C)=C/CC1 [Furanodienone]	0	0%
CO[C@H]1c2cc(C(C)C)c(O)c(O)c2[C@@]23CCCC(C)(C)[C@@H]2[C@@H]1OC3=O [7-Methoxyrosmanol]	12	18%
CC(/C=C/C=C(\C)C(=O)O[C@@H]1O[C@H](CO)[C@@H](O)[C@H](O)[C@H]1O)=C\C=C\C=C(C)\C=C\C=C(/C)C(=O)O[C@@H]1O[C@H](CO[C@@H]2O[C@H](CO)[C@@H](O)[C@H](O)[C@H]2O)[C@@H](O)[C@H](O)[C@H]1O [Crocin II]	27	1%
CC1(C)[C@@H](O[C@@H]2O[C@H](C(=O)O)[C@@H](O)[C@H](O)[C@H]2O[C@@H]2O[C@H](C(=O)O)[C@@H](O)[C@H](O)[C@H]2O)CC[C@]2(C)[C@H]3C(=O)C=C4[C@@H]5C[C@](C)(C(=O)O)CC[C@]5(C)CC[C@@]4(C)[C@]3(C)CC[C@@H]12 [Licorice-saponin H2]	0	14%
(‐)‐Epicatechin gallate	5	8%
CC(=O)O[C@H]1CC[C@]2(C)[C@H]3CC=C4[C@@H]5[C@@H](C)[C@H](C)CC[C@]5(C(=O)O)CC[C@@]4(C)[C@]3(C)CC[C@H]2C1(C)C [Ursolic acid acetate]	24	18%
CC(=O)O[C@@]1(C)C[C@@H](O)[C@]2(O)C=CO[C@@H](O[C@@H]3O[C@H](CO)[C@@H](O)[C@H](O)[C@H]3O)[C@@H]21 [8-O-Acetylharpagide]	10	29%
COc1cc(O)c2c(c1)O[C@H](c1cc(O)cc(O)c1)CC2=O [Blumeatin]	21	11%
COc1ccnc2[nH]cc(C(=O)C(=O)N3CCN(C(=O)c4ccccc4)C[C@H]3C)c12 [BMS‐378806]	47	41%
C=C1C[C@@]23CC[C@H]4[C@@](C)(CCC[C@@]4(C)C(=O)O[C@@H]4O[C@H](CO)[C@@H](O)[C@H](O)[C@H]4O[C@@H]4O[C@H](CO)[C@@H](O)[C@H](O)[C@H]4O)[C@@H]2CC[C@]1(O[C@@H]1O[C@H](CO)[C@@H](O)[C@H](O[C@@H]2O[C@H](CO)[C@@H](O)[C@H](O)[C@H]2O)[C@H]1O[C@@H]1O[C@H](CO)[C@@H](O)[C@H](O)[C@H]1O)C3 [Rebaudioside D]	11	3%
C[n+]1cc2c3c(ccc2c2ccc4cc5c(cc4c21)OCO5)OCO3.[Cl-] [Sanguinarine (chloride)]		20% and 27%
CCC(CC)[C@H](NC(C)=O)[C@@H]1[C@H](O)[C@@H](C(=O)O)C[C@H]1NC(=N)N.O.O.O [Peramivir (trihydrate)]	2	0%
COc1cc2c(cc1OC)[C@H]1[C@@H](C)c3ccc(OC)c(OC)c3CN1CC2 [Corydaline]	0	8%
COc1cc2c(cc1O)-c1c(OC)c(O)cc3c1[C@H](C2)NCC3 [Laetanine]	0	0%
NC[C@@H]1O[C@H](O[C@H]2[C@@H](O)[C@H](O[C@@H]3[C@@H](O)[C@H](N)C[C@H](N)[C@H]3O[C@H]3O[C@H](CN)[C@@H](O)[C@H](O)[C@H]3N)O[C@@H]2CO)[C@H](N)[C@@H](O)[C@@H]1O.O=S(=O)(O)O [Neomycin (sulfate)]	21	3%
C=C(C)[C@@H]1CC=C(CO)CC1 [Perillyl alcohol]	0	6%

Molecule	Percentage of motility inhibition 0 h [%]	Percentage of motility inhibition 24 h
O=C1C[C@@H](c2ccc(O)c(O)c2)Oc2cc(O[C@@H]3O[C@H](CO)[C@@H](O)[C@H](O)[C@H]3O)cc(O)c21 [Eriodictyol‐7‐O‐glucoside]	11	4%
C=C(C)[C@H](CC=C(C)C)Cc1c(O)cc(OC)c2c1O[C@H](c1ccc(O)cc1O)[C@@H](O)C2=O [Kushenol I]	0	8%
COC1=C[C@@H]2[C@@H]3Cc4ccc(OC)c(O)c4[C@]2(CCN3C)CC1=O [Sinomenine]		3% and 0%
COC[C@]12CN(C)[C@@H]3[C@@H]4[C@H](OC)[C@H]1[C@@]3([C@@H](OC)C[C@H]2O)[C@@H]1C[C@@]2(O)[C@H](OC(=O)c3ccccc3)[C@@H]1[C@]4(OC(C)=O)[C@@H](O)[C@@H]2OC [Mesaconitine]	0	3%
CN[C@H](CC(C)C)C(=O)N[C@H]1C(=O)N[C@@H](CC(N)=O)C(=O)N[C@H]2C(=O)N[C@H]3C(=O)N[C@H](C(=O)N[C@H](C(=O)O)c4cc(O)cc(O)c4-c4cc3ccc4O)[C@H](O)c3ccc(c(Cl)c3)Oc3cc2cc(c3O[C@@H]2O[C@H](CO)[C@@H](O)[C@H](O)[C@H]2O[C@H]2C[C@](C)(N)[C@H](O)[C@H](C)O2)Oc2ccc(cc2Cl)[C@H]1O.Cl [Vancomycin (hydrochloride)]	15	0%
O=c1cc(-c2ccc(O)c(O)c2)oc2c(C3OC(CO)C(O)C(O)C3OC3OC(CO)C(O)C(O)C3O)c(O)cc(O)c12 (stereo not drawn) [2"‐O‐beta‐L‐galactopyranosylorientin]	7	0%
C=C[C@]1(C)C=C2CC[C@H]3[C@@](C)(CCC[C@@]3(C)C(=O)O)[C@@H]2CC1 [Continentalic acid]	36	24%
Brusatol	48	37%
N#C[C@@H](O[C@@H]1O[C@H](CO[C@@H]2O[C@H](CO)[C@@H](O)[C@H](O)[C@H]2O)[C@@H](O)[C@H](O)[C@H]1O)c1ccccc1 [Neoamygdalin]	0	0%
COc1ccc(C2COc3cc(O)ccc3C2)c(O)c1OC (stereo not drawn) [Isomucronulatol]	7	7%
O=C1C[C@@H](c2ccc(O)cc2)Oc2cc(O[C@@H]3O[C@H](CO)[C@@H](O)[C@H](O)[C@H]3O)ccc21 [Neoliquiritin]	0	20%
c1ccc2c(Cc3[nH]c4ccccc4c3Cc3c[nH]c4ccccc34)c[nH]c2c1 [2,3‐Bis(3‐indolylmethyl)indole]	21	9%
CC(C)[C@]12O[C@H]1[C@@H]1O[C@@]13[C@@]1(C)CCC4=C(COC4=O)[C@@H]1C[C@@H]1O[C@@]13C2=O [Triptonide]	7	13%
COC(=O)C1=CO[C@@H](O[C@@H]2O[C@H](CO)[C@@H](O)[C@H](O)[C@H]2O)[C@H]2[C@@H]1C(=O)C[C@@H]2C [Verbenalin]	60	44%
C[S+]([O-])CCCC/C(=N\OS(=O)(=O)O)S[C@@H]1O[C@H](CO)[C@@H](O)[C@H](O)[C@H]1O (stereo partly drawn) [Glucoraphanin]	12	0%
COc1ccc(-c2cc(=O)c3c(OC)c(OC)c(OC)cc3o2)cc1 [Scutellarein tetramethyl ether]	0	0%
O=c1c(O[C@@H]2O[C@H](CO)[C@H](O)[C@H](O)[C@H]2O[C@@H]2O[C@H](CO)[C@@H](O)[C@H](O)[C@H]2O)c(-c2ccc(O)cc2)oc2cc(O)cc(O)c12 [Panasenoside]	6	31%
C[N+](C)(C)CCOP(=O)([O-])OP(=O)([O-])OC[C@H]1O[C@@H](n2ccc(N)nc2=O)[C@H](O)[C@@H]1O.[Na+] [Citicoline (sodium)]	4	0%
Vitamin K	0	15%
COc1cc2c(cc1O)[C@@H](Cc1ccc(O)c(Oc3ccc(C[C@@H]4c5cc(OC)c(OC)cc5CCN4C)cc3)c1)N(C)CC2 [Daurisoline]	23	12%
O=C1C=C2C=C[C@@H]3C[C@@]2(O1)[C@H]1CCCCN31 [(-)-Securinine]		5%
